This is an account of results in ChEMBL document CHEMBL1275351, “Novel spirotetracyclic zwitterionic dual H(1)/5-HT(2A) receptor antagonists for the treatment of sleep disorders” (J Med Chem, 2010).

One may read the Ki as the dissociation constant of the complex between target and ligand, obtained from inhibition or displacement. The term IC50 denotes the midpoint of a concentration-inhibition curve. Low values mean higher potency, high ones lower potency.

Sequence of Histamine H1 receptor (P35367 whole entry): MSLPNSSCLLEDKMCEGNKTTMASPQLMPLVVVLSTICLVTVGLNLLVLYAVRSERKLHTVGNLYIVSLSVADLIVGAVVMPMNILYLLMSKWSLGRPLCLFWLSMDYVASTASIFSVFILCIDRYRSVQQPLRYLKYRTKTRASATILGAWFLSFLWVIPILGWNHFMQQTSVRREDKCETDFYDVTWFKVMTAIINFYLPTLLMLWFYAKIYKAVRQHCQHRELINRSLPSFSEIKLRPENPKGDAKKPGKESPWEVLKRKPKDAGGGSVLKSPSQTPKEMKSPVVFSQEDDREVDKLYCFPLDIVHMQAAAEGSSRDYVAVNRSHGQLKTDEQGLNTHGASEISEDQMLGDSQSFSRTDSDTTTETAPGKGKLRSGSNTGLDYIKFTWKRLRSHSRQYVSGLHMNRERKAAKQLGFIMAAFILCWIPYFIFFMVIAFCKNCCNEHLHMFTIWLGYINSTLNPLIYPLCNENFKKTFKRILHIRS
Sequence of Voltage-gated inwardly rectifying potassium channel KCNH2 (Q12809 whole entry): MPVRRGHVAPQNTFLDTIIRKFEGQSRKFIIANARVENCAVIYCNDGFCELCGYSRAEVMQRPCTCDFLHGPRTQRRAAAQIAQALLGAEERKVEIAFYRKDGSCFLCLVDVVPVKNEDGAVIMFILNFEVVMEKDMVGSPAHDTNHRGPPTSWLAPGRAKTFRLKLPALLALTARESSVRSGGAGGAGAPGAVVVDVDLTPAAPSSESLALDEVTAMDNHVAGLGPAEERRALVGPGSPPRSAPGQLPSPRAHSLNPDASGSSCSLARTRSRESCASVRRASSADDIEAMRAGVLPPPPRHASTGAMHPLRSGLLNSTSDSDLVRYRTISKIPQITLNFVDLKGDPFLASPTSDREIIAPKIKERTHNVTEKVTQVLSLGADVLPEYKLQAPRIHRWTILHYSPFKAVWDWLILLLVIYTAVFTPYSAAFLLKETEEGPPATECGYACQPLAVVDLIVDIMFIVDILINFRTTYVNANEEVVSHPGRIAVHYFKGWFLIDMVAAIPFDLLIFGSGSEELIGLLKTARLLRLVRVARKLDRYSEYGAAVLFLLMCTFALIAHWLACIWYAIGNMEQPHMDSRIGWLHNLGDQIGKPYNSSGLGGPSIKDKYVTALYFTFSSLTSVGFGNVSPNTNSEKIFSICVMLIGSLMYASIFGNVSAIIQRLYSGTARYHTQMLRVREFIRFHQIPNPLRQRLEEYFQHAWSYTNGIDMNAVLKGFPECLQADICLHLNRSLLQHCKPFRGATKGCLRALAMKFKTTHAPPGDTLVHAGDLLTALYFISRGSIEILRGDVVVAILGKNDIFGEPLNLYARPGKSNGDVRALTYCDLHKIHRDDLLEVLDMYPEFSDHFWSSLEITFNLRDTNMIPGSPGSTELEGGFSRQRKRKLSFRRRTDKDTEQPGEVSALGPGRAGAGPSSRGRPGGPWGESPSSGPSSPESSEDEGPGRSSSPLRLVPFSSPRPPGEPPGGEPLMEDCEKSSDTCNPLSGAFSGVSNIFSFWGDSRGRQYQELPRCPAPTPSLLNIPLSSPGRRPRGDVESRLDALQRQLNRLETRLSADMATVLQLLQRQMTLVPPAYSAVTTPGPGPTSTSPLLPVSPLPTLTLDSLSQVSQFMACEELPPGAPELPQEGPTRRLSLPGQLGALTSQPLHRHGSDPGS

The target of the first test is 5-hydroxytryptamine receptor 2A (Homo sapiens, UniProt P28223). The experiment in a line: Antagonist activity at human 5HT2A receptor expressed in HEK cells assessed as inhibition of intracellular calcium accumulation by aequorin assay. It counts as functional, cell-based, HEK293. Background: Calcium assays in cells follow changes in intracellular calcium, usually with a dye or a luminescent sensor.
Sequence of 5-hydroxytryptamine receptor 2A (P28223 whole entry): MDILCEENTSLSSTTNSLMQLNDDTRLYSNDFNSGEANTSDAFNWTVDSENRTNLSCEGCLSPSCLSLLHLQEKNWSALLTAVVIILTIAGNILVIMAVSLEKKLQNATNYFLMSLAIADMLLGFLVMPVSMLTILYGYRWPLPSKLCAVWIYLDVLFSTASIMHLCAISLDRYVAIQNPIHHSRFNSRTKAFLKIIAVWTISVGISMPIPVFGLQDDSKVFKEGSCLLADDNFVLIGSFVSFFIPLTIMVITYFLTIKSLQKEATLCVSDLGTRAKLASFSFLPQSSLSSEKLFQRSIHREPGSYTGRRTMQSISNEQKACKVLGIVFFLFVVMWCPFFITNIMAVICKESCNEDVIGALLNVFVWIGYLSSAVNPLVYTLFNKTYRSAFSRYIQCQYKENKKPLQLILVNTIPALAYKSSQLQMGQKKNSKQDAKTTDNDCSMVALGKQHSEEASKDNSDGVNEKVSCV
With `O=C(O)C1(F)CCN(C2CCC3(Cc4ccccc4Oc4ccccc43)C2)CC1` (stereo not drawn), the inhibition constant (Ki) was 398 nM.

For the molecule `CC1(C(=O)O)CCN(C2CC[C@]3(Cc4ccccc4Cc4ccccc43)C2)C1` (stereo partly drawn), the Ki was 12.6 nM.

Consider `O=C(O)C1=CCCN(C2CC[C@]3(Cc4ccccc4Cc4ccccc43)C2)C1` (stereo in doubt; 48), for which the Ki was more than 2000 nM.

For the molecule `O=C(O)C1CCN(C2CCC3(C2)C(=O)c2cc(Cl)ccc2Oc2ccccc23)CC1` (stereo not drawn), the Ki was 398 nM.

As to `O=C(O)C1CCN(C2CC[C@]3(Cc4ccccc4Cc4ccccc43)C2)C1` (stereo partly drawn), the Ki is 20 nM.

`O=C(O)C1(F)CCCN(C2CC[C@]3(Cc4ccccc4Cc4ccccc43)C2)C1` (stereo partly drawn): the Ki was 79.4 nM.

For `O=C(O)C1=CCCN(C2CC[C@@]3(Cc4ccccc4Cc4ccccc43)C2)C1` (stereo partly drawn), the inhibitory constant (Ki) was 3980 nM.

Turning to `O=C(O)[C@H]1[C@@H]2CN(C3CCC4(Cc5ccccc5Cc5ccccc54)C3)C[C@@H]21` (stereo partly drawn), the Ki is 631 nM.

`O=C(O)[C@@H]1CCCN(C2CCC3(C2)C(=O)c2cc(Cl)ccc2Oc2ccccc23)C1` (stereo partly drawn): the Ki was more than 2000 nM.

For `O=C(O)CC1CN(C2CCC3(Cc4ccccc4Cc4ccccc43)C2)C1` (stereo not drawn), the Ki is 50.1 nM.

For `O=C(O)CCNC1CC[C@@]2(Cc3ccccc3Cc3ccccc32)C1` (stereo partly drawn), the Ki is 2000 nM.

For `O=C(O)CC1CCN(C2CC[C@]3(Cc4ccccc4Cc4ccccc43)C2)C1` (stereo partly drawn), the Ki is 20 nM.

Turning to `O=C(O)C1CCN(C2CCC3(C2)C(=O)c2cc(F)ccc2Sc2ccccc23)CC1` (stereo not drawn), the Ki is 126 nM.

The next test deals with 5-hydroxytryptamine receptor 2B (Homo sapiens, UniProt P41595). The experiment in a line: Antagonist activity at human 5HT2B receptor expressed in human SH-SY5Y cells by FLIPR assay.
Sequence of 5-hydroxytryptamine receptor 2B (P41595 whole entry): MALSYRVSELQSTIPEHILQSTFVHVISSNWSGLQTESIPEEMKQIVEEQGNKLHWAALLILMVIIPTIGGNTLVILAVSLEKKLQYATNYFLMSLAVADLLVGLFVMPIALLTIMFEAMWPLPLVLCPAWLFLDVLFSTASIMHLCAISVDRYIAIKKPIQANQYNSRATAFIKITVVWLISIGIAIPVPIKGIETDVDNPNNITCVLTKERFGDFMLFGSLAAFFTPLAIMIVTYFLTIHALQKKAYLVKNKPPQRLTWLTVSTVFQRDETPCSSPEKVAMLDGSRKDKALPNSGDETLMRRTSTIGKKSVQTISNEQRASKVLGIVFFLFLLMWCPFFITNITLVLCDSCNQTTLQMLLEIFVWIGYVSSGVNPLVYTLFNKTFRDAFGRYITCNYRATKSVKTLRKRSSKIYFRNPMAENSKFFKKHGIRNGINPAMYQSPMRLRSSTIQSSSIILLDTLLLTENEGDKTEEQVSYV
On to `CN1CCC(=C2c3ccccc3CC(=O)c3sccc32)CC1` [KETOTIFEN], for which affinity was put at a Ki of 31.6 nM.

The molecule `O=C(O)C1(F)CCN(C2CCC3(Cc4ccccc4Oc4ccccc43)C2)CC1` (stereo not drawn) had a Ki of more than 2000 nM.

In the case of `CC1(C(=O)O)CCN(C2CC[C@]3(Cc4ccccc4Cc4ccccc43)C2)C1` (stereo partly drawn), the Ki is 10 nM.

Regarding `O=C(O)C1=CCCN(C2CC[C@]3(Cc4ccccc4Cc4ccccc43)C2)C1` (stereo in doubt; 48), the Ki is more than 2000 nM.

Take `O=C(O)C1CCN(C2CCC3(C2)C(=O)c2cc(Cl)ccc2Oc2ccccc23)CC1` (stereo not drawn): the Ki is more than 2000 nM.

In the case of `O=C(O)C1CCN(C2CC[C@]3(Cc4ccccc4Cc4ccccc43)C2)C1` (stereo partly drawn), the Ki is 100 nM.

`O=C(O)C1(F)CCCN(C2CC[C@]3(Cc4ccccc4Cc4ccccc43)C2)C1` (stereo partly drawn) registered a Ki of more than 2000 nM.

Turning to `O=C(O)C1=CCCN(C2CC[C@@]3(Cc4ccccc4Cc4ccccc43)C2)C1` (stereo partly drawn), the Ki was more than 2000 nM.

The molecule `O=C(O)[C@H]1[C@@H]2CN(C3CCC4(Cc5ccccc5Cc5ccccc54)C3)C[C@@H]21` (stereo partly drawn) gave a Ki of more than 2000 nM.

On to `O=C(O)[C@@H]1CCCN(C2CCC3(C2)C(=O)c2cc(Cl)ccc2Oc2ccccc23)C1` (stereo partly drawn), for which the Ki was more than 2000 nM.

The molecule `O=C(O)CC1CN(C2CCC3(Cc4ccccc4Cc4ccccc43)C2)C1` (stereo not drawn) had a Ki of 39.8 nM.

Regarding `O=C(O)CCNC1CC[C@@]2(Cc3ccccc3Cc3ccccc32)C1` (stereo partly drawn), the Ki was more than 2000 nM.

In the case of `O=C(O)CC1CCN(C2CC[C@]3(Cc4ccccc4Cc4ccccc43)C2)C1` (stereo partly drawn), the Ki is 1000 nM.

`O=C(O)C1CCN(C2CCC3(C2)C(=O)c2cc(F)ccc2Sc2ccccc23)CC1` (stereo not drawn) showed a Ki of more than 2000 nM.

A further test concerns the target Voltage-gated inwardly rectifying potassium channel KCNH2 (Homo sapiens, UniProt Q12809). The experiment in a line: Displacement of [3H]dofetilide from human ERG by scintillation proximity assay.
Molecule `O=C(O)CCNC1CC[C@@]2(Cc3ccccc3Cc3ccccc32)C1` (stereo partly drawn) had an IC50 of more than 63100 nM.

The next test has as its target T1, 5-hydroxytryptamine receptor 2C (Homo sapiens, UniProt P28335).
T1 sequence (P28335 whole entry): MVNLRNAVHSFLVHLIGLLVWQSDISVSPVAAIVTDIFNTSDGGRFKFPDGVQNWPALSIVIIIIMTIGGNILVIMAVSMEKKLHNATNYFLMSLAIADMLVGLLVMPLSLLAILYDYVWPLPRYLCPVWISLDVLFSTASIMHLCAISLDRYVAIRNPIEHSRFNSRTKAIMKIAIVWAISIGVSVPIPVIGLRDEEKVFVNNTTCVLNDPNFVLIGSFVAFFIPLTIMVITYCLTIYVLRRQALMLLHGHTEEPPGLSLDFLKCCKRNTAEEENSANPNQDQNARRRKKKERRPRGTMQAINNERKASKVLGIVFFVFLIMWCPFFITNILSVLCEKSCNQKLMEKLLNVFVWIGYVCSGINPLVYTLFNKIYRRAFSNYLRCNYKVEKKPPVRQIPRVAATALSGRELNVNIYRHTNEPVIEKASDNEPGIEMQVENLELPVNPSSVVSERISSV
The experiment in a line: Antagonist activity at human 5HT2C receptor expressed in human SH-SY5Y cells by FLIPR assay. In kind it is functional, cell-based.
As to `CN1CCC(=C2c3ccccc3CC(=O)c3sccc32)CC1` [KETOTIFEN], the affinity corresponds to a Ki of 200 nM.

In turn, `O=C(O)C1(F)CCN(C2CCC3(Cc4ccccc4Oc4ccccc43)C2)CC1` (stereo not drawn) gave a Ki of more than 2000 nM.

Regarding `CC1(C(=O)O)CCN(C2CC[C@]3(Cc4ccccc4Cc4ccccc43)C2)C1` (stereo partly drawn), the Ki is 20 nM.

As for `O=C(O)C1=CCCN(C2CC[C@]3(Cc4ccccc4Cc4ccccc43)C2)C1` (stereo in doubt; 48), the Ki was more than 2000 nM.

`O=C(O)C1CCN(C2CC[C@]3(Cc4ccccc4Cc4ccccc43)C2)C1` (stereo partly drawn) had a Ki of 15.8 nM.

Turning to `O=C(O)C1(F)CCCN(C2CC[C@]3(Cc4ccccc4Cc4ccccc43)C2)C1` (stereo partly drawn), the affinity corresponds to a Ki of 1580 nM.

For `O=C(O)C1=CCCN(C2CC[C@@]3(Cc4ccccc4Cc4ccccc43)C2)C1` (stereo partly drawn), the inhibition constant Ki is more than 2000 nM.

In turn, `O=C(O)[C@H]1[C@@H]2CN(C3CCC4(Cc5ccccc5Cc5ccccc54)C3)C[C@@H]21` (stereo partly drawn) showed an inhibitory constant (Ki) of more than 2000 nM.

`O=C(O)CC1CN(C2CCC3(Cc4ccccc4Cc4ccccc43)C2)C1` (stereo not drawn) gave a Ki of more than 2000 nM.

Take `O=C(O)CCNC1CC[C@@]2(Cc3ccccc3Cc3ccccc32)C1` (stereo partly drawn): the Ki is more than 2000 nM.

As to `O=C(O)CC1CCN(C2CC[C@]3(Cc4ccccc4Cc4ccccc43)C2)C1` (stereo partly drawn), the Ki is 20 nM.

For the molecule `O=C(O)C1CCN(C2CCC3(C2)C(=O)c2cc(F)ccc2Sc2ccccc23)CC1` (stereo not drawn), the Ki is more than 2000 nM.

Another test addresses Histamine H1 receptor (Homo sapiens, UniProt P35367). The experiment in a line: Antagonist activity against human histamine H1 receptor expressed in CHO cells by FLIPR assay. In kind it is functional, cell-based.
Consider `O=C(O)C1(F)CCN(C2CCC3(Cc4ccccc4Oc4ccccc43)C2)CC1` (stereo not drawn), for which the Ki was 158 nM.

As to `CC1(C(=O)O)CCN(C2CC[C@]3(Cc4ccccc4Cc4ccccc43)C2)C1` (stereo partly drawn), the affinity corresponds to a Ki of 12.6 nM.

`O=C(O)C1=CCCN(C2CC[C@]3(Cc4ccccc4Cc4ccccc43)C2)C1` (stereo in doubt; 48): the affinity corresponds to a Ki of 20 nM.

`O=C(O)C1CCN(C2CCC3(C2)C(=O)c2cc(Cl)ccc2Oc2ccccc23)CC1` (stereo not drawn) gave an inhibitory constant (Ki) of 1000 nM.

Take `O=C(O)C1CCN(C2CC[C@]3(Cc4ccccc4Cc4ccccc43)C2)C1` (stereo partly drawn): the affinity corresponds to a Ki of 15.8 nM.

Take `O=C(O)C1(F)CCCN(C2CC[C@]3(Cc4ccccc4Cc4ccccc43)C2)C1` (stereo partly drawn): the Ki was 794 nM.

As to `O=C(O)C1=CCCN(C2CC[C@@]3(Cc4ccccc4Cc4ccccc43)C2)C1` (stereo partly drawn), affinity was put at a Ki of 158 nM.

Consider `O=C(O)[C@H]1[C@@H]2CN(C3CCC4(Cc5ccccc5Cc5ccccc54)C3)C[C@@H]21` (stereo partly drawn), for which the inhibitory constant (Ki) is 39.8 nM.

`O=C(O)[C@@H]1CCCN(C2CCC3(C2)C(=O)c2cc(Cl)ccc2Oc2ccccc23)C1` (stereo partly drawn) gave a Ki of 200 nM.

As to `O=C(O)CC1CN(C2CCC3(Cc4ccccc4Cc4ccccc43)C2)C1` (stereo not drawn), the affinity corresponds to a Ki of 316 nM.

In turn, `O=C(O)CCNC1CC[C@@]2(Cc3ccccc3Cc3ccccc32)C1` (stereo partly drawn) gave a Ki of 25.1 nM.

The molecule `O=C(O)CC1CCN(C2CC[C@]3(Cc4ccccc4Cc4ccccc43)C2)C1` (stereo partly drawn) gave an inhibition constant Ki of 31.6 nM.

Regarding `O=C(O)C1CCN(C2CCC3(C2)C(=O)c2cc(F)ccc2Sc2ccccc23)CC1` (stereo not drawn), affinity was put at a Ki of 200 nM.
